Laboratory results published in patent US20160367502A1, “FILM COATED PELLETS” (RATIOPHARM GMBH, priority 2012, published 2016).
Read-outs that look alike come from different tables or passages of the source.

Assay: Solubility in water at 25° C.
Assay type: physicochemical
Method: If it is not known, it can be determined by conventional methods. […] The amount or concentration of the active pharmaceutical ingredient in the solution is determined by analytical techniques known in the art.

[1] = sitagliptin salts, water, 25° C.

Solubility of sitagliptin salts in water at 25° C.	Compound	Solubility of sitagliptin salts in water at 25° C. [1]
–	N[C@@H](CC(=O)N1CCn2c(nnc2C(F)(F)F)C1)Cc1cc(F)c(F)cc1F.O=C[C@H](O)[C@@H](O)[C@H](O)[C@H](O)C(=O)O [D-Glucuronate, sitagliptin D-glucuronate]	>500 mg/mL
–	N[C@@H](CC(=O)N1CCn2c(nnc2C(F)(F)F)C1)Cc1cc(F)c(F)cc1F.O=P(O)(O)O [Dihydrogen phosphate, sitagliptin dihydrogen phosphate]	100 to 120 mg/mL
>500 mg/mL	sitagliptin glutarate	–
